Measurements published in US20020173491A1, “DAPD combination therapy with inosine monophosphate dehydrogenase inhibitor” (priority 2000, published 2002).
Read-outs that look alike come from different tables or passages of the source. Marks after values point to notes of the source that are not given here.

Key:
[1] = system: xxLAI strain of HIV-1; assay: microbe, parasite or virus in culture; type: cell-based; conditions: for effect of addition of 0.25 μM MPA on anti-HIV activity in PBMCs / effect of addition of 20 μM RBV on anti-HIV activity in PBMCs / Fold difference in EC50, 0.01 μM MPA / Fold difference in EC50, 0.1 μM MPA / Fold difference in EC50, 0.25 μM MPA / Fold difference in EC50, 5 μM RBV / Fold difference in EC50, 10 μM RBV / Fold difference in EC50, 20 μM RBV: PBMC; for effect of addition of 0.25 μM MPA on anti-HIV activity in PBMCs / effect of addition of 20 μM RBV on anti-HIV activity in PBMCs: all the concentrations tested; for Fold difference in EC50, 0.01 μM MPA: control vs with 0.01 μM MPA; for Fold difference in EC50, 0.1 μM MPA: control vs with 0.1 μM MPA; for Fold difference in EC50, 0.25 μM MPA: control vs with 0.25 μM MPA; for Fold difference in EC50, 5 μM RBV: control vs with 5 μM RBV; for Fold difference in EC50, 10 μM RBV: control vs with 10 μM RBV; for Fold difference in EC50, 20 μM RBV: control vs with 20 μM RBV
Procedure: In this assay, cell supernatants were incubated on microelisa wells coated with antibodies to HIV-1 p24 core antigen. Subsequently, anti-HIV-1 conjugate labeled with horseradish peroxidase was added. The labeled antibody bound to the solid phase antibody/antigen complexes previously formed. Addition of the tetramethylbenzidine substrate results in blue color formation. The color turned yellow when the reaction is stopped. The plates were then analyzed on a plate reader set at 490 nm. The absorbance is a direct measurement of the amount of HIV-1 produced in each well and a decrease in color indicates decreased viral production. […] PBMC were obtained from HIV-1 negative donors by banding on Ficoll gradients, stimulated with phytohemaglutinin (PHAP) for 48 hours prior to infection with HIV-1, and infected with virus for 4 hours at 37° C. at a MOI of 0.001. […] Plates were incubated for 3 days at 37° C. The concentration of virus in each well was determined using the NEN p24 assay. Using the absorption values of the cell controls as 100% protection and drug free, virus infected cells as 0% protection, a dose response curve is generated by plotting percent protection on the Y axis and drug concentration on the X axis. From this curve, EC50 values were determined.
Compound dilutions and assay conditions were as described above.
MPA was also tested for activity against the xxLAI strain of HIV-1 in PBMCs using a p24 based Elisa assay. In this assay, cell supernatants are incubated on microelisa wells coated with antibodies to HIV-1 p24 core antigen. Subsequently, anti-HIV-1 conjugate labeled with horse radish peroxidase is added. The labeled antibody binds to the solid phase antibody/antigen complexes previously formed. Addition of the tetramethylbenzidine substrate results in blue color formation. The color turns yellow when the reaction is stopped. The plates are then analyzed on a plate reader set at 490 nm. The absorbance is a direct measurement of the amount of HIV-1 produced in each well and a decrease in color indicates decreased viral production. Dilutions of MPA were made in cell culture media in a 96 well plate, the highest concentration of MPA tested was 1 μM. PBMC were obtained from HIV-1 negative donors by banding on Ficoll gradients, stimulated with phytohemaglutinin (PHAP) for 48 hours prior to infection with HIV-1, and infected with virus for 4 hours at 37° C. at a MOI of 0.001. Infected cells were seeded into 96 well plates containing 4-fold serial dilutions of MPA. Plates were incubated for 3 days at 37° C. The concentration of virus in each well was determined using the NEN p24 assay. Using the absorption values of the cell controls as 100% protection and drug free, virus infected cells as 0% protection, a dose response curve is generated by plotting % protection on the Y axis and drug concentration on the X axis. From this curve EC50 values were determined.
Compound dilutions and assay conditions were as described above. The concentrations of MPA used were 1, 0.5, 0.25, 0.1, and 0.01 μM.

[2] = system: HIV-1 mutant K65R; assay: MT2/XTT combination assay, resistant virus K65R; type: cell-based; conditions: for EC50: Human immunodeficiency virus 1, K65R; for fold difference from WT: K65R
Procedure: (§1) Triplicate samples of compound were tested. MT2 cells were infected with xxLAI at a multiplicity of infection (MOI) of 0.03 for 3 hours at 37° C. in 5% CO2. The infected cells were plated at 3.0×10^4/well into a 96 well plated containing drug dilutions and incubated for 5 days at 37° C. in CO2. […] This method has been modified into a susceptibility assay and has been used in a variety of in vitro antiviral tests and is readily adaptable to any system with a lytic virus (Weislow, O. S., et. al. 1989). Using the absorption values of the cell controls as 100% protection and no drug, virus infected cells as 0% protection, a dose response curve is generated by plotting % protection on the Y axis and drug concentration on the X axis. From this curve EC50 values were determined.
(§2) Assays were performed in the MT2 cell line as described above in the XXT sensitivity assay section.
(§3) The restraint strains analyzed included viruses created by site directed mutagenesis, K65R and L74V, as well as a recombinant virus containing mutations at positions 98S, 116Y, 151M and 215Y. The wild type backbone in which these mutants were created, xxLAI, was also analyzed for comparison. The concentrations of DAPD and DXG tested were as described in the above MT2/XTT combination assay section.
(§4) The concentrations of MPA used were 1, 0.5, 0.25, 0.1, and 0.01 μM. Assays were performed in the MT2 cell line as described in section 3.1.
as §3, with “section 4.1. MPA was tested in” for “the above MT2/XTT”, “with DAPD and DXG at a fixed concentration of 0.25 μM.” for “assay section.”

[3] = system: HIV-1 mutant L74V; assay: MT2/XTT combination assay, resistant virus L74V; type: cell-based; conditions: for EC50: Human immunodeficiency virus 1, L74V; for fold difference from WT: L74V
Procedure: as §1, §2, §3, §4
as §3, with “section 4.1. MPA was tested in” for “the above MT2/XTT”, “with DAPD and DXG at a fixed concentration of 0.25 μM.” for “assay section.”

[4] = system: recombinant virus A98S, F116Y, Q151M, T215Y; assay: MT2/XTT combination assay, recombinant resistant virus; type: cell-based, HIV-1; conditions: for fold difference from WT: A98S; for EC50: Human immunodeficiency virus 1, A98S
Procedure: as §1, §2, §3, §4
as §3, with “section 4.1. MPA was tested in” for “the above MT2/XTT”, “with DAPD and DXG at a fixed concentration of 0.25 μM.” for “assay section.”

[5] = Human immunodeficiency virus 1, PBMC, read-out: Mean EC50, Control, PMBCs, no MPA
[6] = Human immunodeficiency virus 1, PBMC, read-out: Mean EC50, Control, PMBCs, no RBV
[7] = read-out: Mean EC50, 0.01 μM MPA, PMBCs, with 0.01 μM MPA
[8] = read-out: Mean EC50, 0.1 μM MPA, PMBCs, with 0.1 μM MPA
[9] = read-out: Mean EC50, 0.25 μM MPA, PMBCs, with 0.25 μM MPA
[10] = read-out: Mean EC50, 1 μM RBV, PMBCs, with 1 μM RBV
[11] = read-out: Mean EC50, 5 μM RBV, PMBCs, with 5 μM RBV
[12] = read-out: Mean EC50, 10 μM RBV, PMBCs, with 10 μM RBV
[13] = read-out: Mean EC50, 20 μM RBV, PMBCs, with 20 μM RBV

`Nc1nc(N)c2ncn(C3COC(CO)O3)c2n1` (single isomer, unassigned; (-)) [DAPD] was tested, and the EC50 [1, 5] was 4.1 µM, the EC50 [1, 6] was 4.5 µM and the “effect of addition of 0.25 μM MPA on anti-HIV activity in PBMCs” value ([1]; with 0.25 μM MPA) was “completely inhibited HIV replication”. The “effect of addition of 20 μM RBV on anti-HIV activity in PBMCs” value ([1]; with 20 μM RBV) was “completely inhibited HIV replication”, the “Fold difference in EC50, 0.01 μM MPA” value [1] was 4.6 fold and the “Fold difference in EC50, 0.1 μM MPA” value [1] was 22.8 fold. The “Fold difference in EC50, 0.25 μM MPA” value [1] was over 50 fold, the “Fold difference in EC50, 5 μM RBV” value [1] was 6.4 fold and the “Fold difference in EC50, 10 μM RBV” value [1] was 28 fold. The “Fold difference in EC50, 20 μM RBV” value [1] was over 150 fold, the EC50 [1, 7] was 0.9 µM and the EC50 [1, 8] was 0.18 µM. For the same compound, the EC50 [1, 9] was under 0.0002 µM, the EC50 [1, 10] was 2.26 µM and the EC50 [1, 11] was 0.7 µM. For the same compound, the EC50 [1, 12] was 0.16 µM, the EC50 [1, 13] was under 0.03 µM and the EC50 ([2]; compound alone (Table 4)) was 43.7 µM. The EC50 ([2]; compound alone (Table 10)) was 41 µM, the “fold difference from WT” value ([2]; compound alone (Table 4)) was “(5.5)^b fold” and the “fold difference from WT” value ([2]; compound alone (Table 10)) was 6 fold. For the same compound, the EC50 ([3]; compound alone (Table 4)) was 34 µM, the EC50 ([3]; compound alone (Table 10)) was 39 µM and the “fold difference from WT” value ([3]; compound alone (Table 4)) was “(4) fold”. For the same compound, the “fold difference from WT” value ([3]; compound alone (Table 10)) was 4.9 fold, the “fold difference from WT” value ([4]; compound alone (Table 4)) was “(>12) fold” and the “fold difference from WT” value ([4]; compound alone (Table 10)) was 6 fold. The EC50 ([4]; compound alone (Table 4)) was over 100 µM and the EC50 ([4]; compound alone (Table 10)) was 85 µM.
In the case of `Nc1nc2c(ncn2C2COC(CO)O2)c(=O)[nH]1` (single isomer, unassigned; (-)) [DXG], the EC50 [1, 5] is reported as 0.14 µM, the EC50 [1, 6] is reported as 0.15 µM and the “effect of addition of 0.25 μM MPA on anti-HIV activity in PBMCs” value ([1]; with 0.25 μM MPA) is reported as “completely inhibited HIV replication”. The “effect of addition of 20 μM RBV on anti-HIV activity in PBMCs” value ([1]; with 20 μM RBV) was “completely inhibited HIV replication”, the “Fold difference in EC50, 0.01 μM MPA” value [1] was 9.3 fold and the “Fold difference in EC50, 0.1 μM MPA” value [1] was 23.3 fold. For the same compound, the “Fold difference in EC50, 0.25 μM MPA” value [1] was over 50 fold, the “Fold difference in EC50, 5 μM RBV” value [1] was 5.6 fold and the “Fold difference in EC50, 10 μM RBV” value [1] was over 15 fold. For the same compound, the “Fold difference in EC50, 20 μM RBV” value [1] was over 15 fold, the EC50 [1, 7] was 0.015 µM and the EC50 [1, 8] was 0.006 µM. For the same compound, the EC50 [1, 9] was under 0.0002 µM, the EC50 [1, 10] was 0.075 µM and the EC50 [1, 11] was 0.027 µM. The EC50 [1, 12] was under 0.01 µM, the EC50 [1, 13] was under 0.01 µM and the EC50 ([2]; compound alone (Table 4)) was 3.9 µM. For the same compound, the EC50 ([2]; compound alone (Table 10)) was 4 µM, the “fold difference from WT” value ([2]; compound alone (Table 4)) was 5 fold and the “fold difference from WT” value ([2]; compound alone (Table 10)) was 5.6 fold. For the same compound, the EC50 ([3]; compound alone (Table 4)) was 4.5 µM, the EC50 ([3]; compound alone (Table 10)) was 3.8 µM and the “fold difference from WT” value ([3]; compound alone (Table 4)) was 5.6 fold. The “fold difference from WT” value ([3]; compound alone (Table 10)) was 4.2 fold, the “fold difference from WT” value ([4]; compound alone (Table 4)) was 20 fold and the “fold difference from WT” value ([4]; compound alone (Table 10)) was 8.4 fold. The EC50 ([4]; compound alone (Table 4)) was 16 µM and the EC50 ([4]; compound alone (Table 10)) was 16 µM.
